Test results reported in the SangsterLogP compilation.

Assay: method code SF-AS, from DOI: 10.1021/jm00305a054, PMID: 5812219

| logP | Structure (SMILES) |
| --- | --- |
| 0.48 | CC(C)CC(=O)NC(=O)C1CCC1 |
| -0.4 | CC(=O)NC(=O)C1CCC1 |
| 1.28 | CCCCCCCCCCCC(=O)NC(=O)C1CCC1 |
| 0.89 | CCCCCC(=O)NC(=O)C1CCC1 |
| 0.41 | CCCC(=O)NC(=O)C1CCC1 |
| 0.75 | CCCCC(=O)NC(=O)C1CCC1 |
| 0.26 | CC(C)C(=O)NC(=O)C1CCC1 |
| 0.85 | CCCCCCCC(=O)NC(=O)C1CCC1 |
| -0.7 | O=CNC(=O)C1CCC1 |
| 0.53 | CC(C)(C)C(=O)NC(=O)C1CCC1 |
